Test results taken from patent publication US8506973B2, “Injectable anticancer composition for local administration containing hydroxychloroquine” (priority 2009, dated 2013).

Legend:
Sarcoma-180 cells = test: Inhibitory effect on differentiation of subcutaneously transplanted Sarcoma-180 cells in ICR mice; type: in vivo; details: cisplatin 20 mg/m^2, 12 animals per group, average of two tests
Procedure: A sarcoma-180 cell suspension having a cell concentration of 2×10^7 cells/ml was transplanted by subcutaneous injection into the inguinal region of all the groups excluding the normal group, thereby inducing solid cancer.
On the final day of the test, the animals were biopsied, and the number of animals in which sarcoma-180 cells stably grew was measured and used as an anticancer index. The same test was carried out twice, and the two measurements were averaged.

[1] = Solubility of hydroxychloroquine (statement); type: physicochemical

Row | solubility at room temperature (in words) [1] | SMILES | number of animals in which cancer cells were observed in the inguinal region by biopsy (Sarcoma-180 cells)
1 |  | N.N.[Cl][Pt][Cl] [cisplatin, Cisplatin] | 4.5 animals
2 | insoluble at room temperature | CCN(CCO)CCCC(C)Nc1ccnc2cc(Cl)ccc12 (centres unmarked) [hydroxychloroquine] | 
